Assay results taken from patent US11376306B2, “Peptides and uses therefor as antiviral agents” (priority 2017, dated 2022).
pEC50, pIC50: −log10 of the molar value. Positions of bridges follow the written chain, without caps; N, C: chain ends. Non-standard residues stand in square brackets, D forms with d. Residues, ends and D or L forms follow the SMILES beside them.

Experiments:
HSV-2 = assay: Cytopathic effect (CPE) assay, HSV-2 on Vero cells; assay type: cell-based, Herpes Simplex Virus; conditions: MOI 0.02, 4 days
Method: FIG. 3: Effect of PSP VI A1 against HSV-2 in vitro. The ability of the peptide to inhibit the replication of HSV was determined by CPE assay on Vero cells. Experiments were done in triplicates and carried out in the presence of DMSO or increasing concentration of test compound.
(§1) Cytopathic effect (CPE) assay for HSV, RSV and CMV: Appropriate cells were seeded into 96 well plates and incubated overnight until they reached ˜70% confluency. Viruses were treated with various concentrations of peptide or vehicle for 90 minutes at 4° C. and added on to the confluent monolayer of cells for the rest of the assay. At the end of the incubation period, the viability of the cells was determined by adding MTT reagent and incubating the plates at 37° C. for 2-4 hours at 5% CO2. After the incubation, 100% isopropanol was added to solubilise the formazan crystals and the absorbance was recorded at 540 nm subtracting the background at 620 nm.
(§2) Pauwels formula (shown below) was used to calculate the percent cell protection achieved by the positive control or test compounds.
(§3) Percent cell protection=([ODt]virus−[ODc]virus/[ODc]mock−[ODc]virus)×100
(§4) These percentages were used to determine the ECso which were calculated by non-linear regression analysis with IDBS XLFit Excel Add-in Version 5.4.0.8

CMV AD169 = assay: Cytopathic effect (CPE) assay, CMV AD169 on HFFF-2 cells; assay type: cell-based, Cytomegalovirus; conditions: CPE assay on HFFF-2 cells, MOI 0.006, 14 days
Method: (§5) FIG. 5: Effect of PSP VI A1 against CMV in vitro. The ability of the peptide to inhibit the replication of CMV was determined by CPE assay on HFFF-2 cells. Experiments were done in triplicates and carried out in the presence of DMSO or increasing concentration of test compound.
as §1, §2, §3, §4

RSV A2 = assay: Cytopathic effect (CPE) assay, RSV A2 on Hep-2 cells; assay type: cell-based, Respiratory syncytial virus; conditions: CPE assay on Hep-2 cells, MOI 0.02, 5 days
Method: as §5, with “1:” for “5:”, “H-RRKKcwwftfiac-OH (PSP” for “PSP”, “A1)” for “A1”, “RSV A2” for “CMV”, “Hep-2” for “HFFF-2”
as §1, §2, §3, §4

HIV-1 92UG029 = assay type: cell-based, Human Immunodeficiency Virus
Method: FIG. 7: Effect of PSP VI A1 against HIV-1 92UG029 in vitro. The ability of the peptide to inhibit the replication of HIV was determined by reverse transcriptase assay on PBMCs. Experiments were carried out in the presence of DMSO or increasing concentration of peptide. Results are presented as mean value of triplicate measurements.
Anti-HIV Efficacy Evaluation in Fresh Human PBMCs: PBMCs were infected with various concentrations of peptide treated viruses and incubated at 37° C., 5% CO2 for seven days. After this incubation, the cells were centrifuged down and the supernatants were collected for reverse transcriptase activity (RT) assay. The cytotoxic effects of the compounds were studied with the addition of MTS to the cells following the removal of the supernatant. Data analysis for IC50 and TC50 was done by the CRO with their in house computer program.
Reverse transcriptase activity assay: Reverse transcriptase (RT) assay was carried out in a microtiter plate. Briefly Tritiated thymidine triphosphate (3H-TTP, 80 Ci/mmol, NEN;(GE Healthcare) was prepared as a stock solution by combining 150 μL poly rA (20 mg/mL) with 0.5 mL oligo dT (20 units/mL) and 5.35 mL sterile dH2O. Fresh RT reaction buffer was prepared with 125 μL 1.0 M EGTA, 125 μL dH2O, 125 μL 20% Triton X100, 50 μL 1.0 M Tris (pH 7.4), 50 μL 1.0 M DTT, and 40 μL 1.0 M MgCl2. The final reaction mixture was obtained by mixing 1 part of 3H-TTP, 4 parts dH2O, 2.5 parts poly rA:oligo dT stock and 2.5 parts reaction buffer. Ten microliters of this reaction mixture was added to the microtiter plate and 15 μL of virus containing supernatant is added and mixed. Then the plate was incubated at 37° C. for 60 minutes. After the incubation, the reaction volume was spotted onto DE81 filter-mats (Wallac), washed extensively with 5% sodium phosphate buffer or 2× SSC (Life Technologies), then in distilled water which was followed by 70% ethanol wash and air drying. Standard liquid scintillation techniques were used to quantify the incorporated radioactivity (counts per minute, CPM).

[1] = Cytotoxicity Assay 2 (CellTiter 96 AQueous One) on A549 cells; assay type: cell-based; conditions: human, 0.1-100 μM, no significant toxicity, read-out: CE50 (Cytotoxic Effect 50)
Method: (§6) Cytotoxicity Assay 2: MDCK cells or A549 cells (˜5000 cells/well) are grown overnight on 96 well plates. The media is replaced by serially diluted peptides and incubated again for 24/48 h. The culture medium is removed and 20 μl of CellTiter 96® AQueous One Solution […] (Promega, Wis., USA) is added and incubated at 37° C. for 2 h. The optical density is measured at 490 nm in an microplate reader (iMARK, BioRad, USA).
(§7) Cytotoxic effects of anti-viral peptides on MDCK cells or A549 cells: The cytotoxic effects of anti-viral peptides are shown in FIG. 12 and FIG. 13 which are assessed as explained in Example 1. Briefly, the MDCK cells/A549 cells are treated with either 0 μM peptide (Mock) or increasing concentrations (i.e., 0.1 μM, 0.3 μM, 1 μM, 3 μM, 10 μM, 30 μM and 100 μM) of PSP V A19 and PSP VI A1 and the cell death is determined by 48 hours post infection by a cytotoxicity assay with CellTiter 96® AQueous One Solution cell proliferation assay kit (Promega, USA) as explained by manufacturer. The results are normalized to the mock treated cells.

[2] = Cytotoxicity Assay 2 (CellTiter 96 AQueous One) on MDCK cells; assay type: cell-based; conditions: dog, 0.1-100 μM, no significant toxicity, read-out: CE50 (Cytotoxic Effect 50)
Method: as §6, §7

pIC50 (HIV-1 92UG029) | Compound | pEC50 (HSV-2) | pEC50 (CMV AD169) | pEC50 (RSV A2) | CC50 at 48 h [1] [µM] | CC50 at 48 h [2] [µM]
 | CC[C@@H](C)[C@H]1NC(=O)[C@@H](Cc2ccccc2)NC(=O)[C@@H]([C@H](C)O)NC(=O)[C@@H](Cc2ccccc2)NC(=O)[C@@H](Cc2c[nH]c3ccccc23)NC(=O)[C@@H]([C@H](C)O)NC(=O)[C@H](NC(=O)[C@H](CCCCN)NC(=O)[C@H](CCCCN)NC(=O)[C@H](CCCNC(=N)N)NC(=O)[C@@H](N)CCCNC(=N)N)CSSC[C@H](C(=O)O)NC(=O)[C@@H](CC(N)=O)NC1=O [PSP IV A17, H-RRKKctwftfinc-OH] (H-RRKK[dC][dT][dW][dF][dT][dF][dI][dN][dC]-OH; disulfide 5-13) | ~4.52 | 4.72 | 4.90 |  | 
4.10 | CC[C@@H](C)[C@@H](NC(=O)[C@@H](Cc1ccccc1)NC(=O)[C@H](NC(=O)[C@@H](Cc1ccccc1)NC(=O)[C@@H](Cc1c[nH]c2ccccc12)NC(=O)[C@H](NC(=O)[C@H](CCCCN)NC(=O)[C@H](CCCCN)NC(=O)[C@H](CCCNC(=N)N)NC(=O)[C@@H](N)CCCNC(=N)N)[C@H](C)O)[C@H](C)O)C(=O)N[C@H](CC(N)=O)C(=O)O [PSP IV A17-LS, H-RRKKtwftfin-OH] (H-RRKK[dT][dW][dF][dT][dF][dI][dN]-OH) |  |  |  |  | 
 | CC[C@@H](C)[C@H]1NC(=O)[C@@H](Cc2ccccc2)NC(=O)[C@@H]([C@H](C)O)NC(=O)[C@@H](Cc2ccccc2)NC(=O)[C@@H](Cc2c[nH]c3ccccc23)NC(=O)[C@@H](Cc2c[nH]c3ccccc23)NC(=O)[C@H](NC(=O)[C@H](CCCCN)NC(=O)[C@H](CCCCN)NC(=O)[C@H](CCCNC(=N)N)NC(=O)[C@@H](N)CCCNC(=N)N)CSSC[C@H](C(=O)O)NC(=O)[C@@H](CC(N)=O)NC1=O [PSP V A19, H-RRKKcwwftfinc-OH] (H-RRKK[dC][dW][dW][dF][dT][dF][dI][dN][dC]-OH; disulfide 5-13) |  |  |  | > 30 | > 30
4.18 | CC[C@@H](C)[C@H]1NC(=O)[C@@H](Cc2ccccc2)NC(=O)[C@@H]([C@H](C)O)NC(=O)[C@@H](Cc2ccccc2)NC(=O)[C@@H](Cc2c[nH]c3ccccc23)NC(=O)[C@@H](Cc2c[nH]c3ccccc23)NC(=O)[C@H](N)CSSC[C@H](C(=O)O)NC(=O)[C@@H](CC(N)=O)NC1=O [PSP V A19-C, H-cwwftfinc-OH] (H-[dC][dW][dW][dF][dT][dF][dI][dN][dC]-OH; disulfide 1-9) |  |  |  |  | 

Compound | pIC50 (HIV-1 92UG029) | pEC50 (HSV-2) | pEC50 (CMV AD169) | pEC50 (RSV A2) | CC50 at 48 h [1] [µM] | CC50 at 48 h [2] [µM]
CC[C@@H](C)[C@H]1NC(=O)[C@@H](Cc2ccccc2)NC(=O)[C@@H]([C@H](C)O)NC(=O)[C@@H](Cc2ccccc2)NC(=O)[C@@H](Cc2c[nH]c3ccccc23)NC(=O)[C@@H](Cc2c[nH]c3ccccc23)NC(=O)[C@H](NC(=O)[C@H](CCCCN)NC(=O)[C@H](CCCCN)NC(=O)[C@H](CCCNC(=N)N)NC(=O)[C@@H](N)CCCNC(=N)N)CSSC[C@H](C(=O)O)NC(=O)[C@@H](C)NC1=O [PSP VI A1, H-RRKKcwwftfiac-OH] (H-RRKK[dC][dW][dW][dF][dT][dF][dI][dA][dC]-OH; disulfide 5-13) | 4.22 | ~4.52 | 4.86 | 4.75 | > 30 | > 30
